Patent US7517874B2 (priority 2007, dated 2009)

Assays:
[1] = molecular target: human CB1 receptor (hCB1) (Homo sapiens, UniProt P21554); assay: cell-based; assay type: cell-based; settings: for +/− HCB1: agonist or inverse agonist at hCB1
In short: (§1)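 First, cells in IBMX-containing HEPES-buffered HBSS are raised to elevated cAMP with 2-8 μM NKH-477 for 30 min. Data are normalised to the forskolin and forskolin + 1 μM CP55,940 controls.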

[2] = molecular target: T1, rat CB2 receptor (rCB2) (Rattus norvegicus, UniProt Q9QZN9); assay: cell-based; assay type: cell-based; settings: for +/− RCB2: agonist or inverse agonist at rCB2
T1 sequence (Q9QZN9 1-360): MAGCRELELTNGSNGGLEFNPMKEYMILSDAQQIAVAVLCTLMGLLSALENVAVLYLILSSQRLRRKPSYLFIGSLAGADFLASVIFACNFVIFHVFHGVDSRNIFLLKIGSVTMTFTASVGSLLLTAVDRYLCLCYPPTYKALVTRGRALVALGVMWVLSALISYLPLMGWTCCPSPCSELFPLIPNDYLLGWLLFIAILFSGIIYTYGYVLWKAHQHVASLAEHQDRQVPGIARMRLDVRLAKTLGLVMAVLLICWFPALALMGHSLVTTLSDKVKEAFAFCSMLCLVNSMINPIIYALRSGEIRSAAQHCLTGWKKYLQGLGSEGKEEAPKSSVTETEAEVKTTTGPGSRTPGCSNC
In short: as §1

human CB1 receptor (hCB1), sequence (P21554 whole entry): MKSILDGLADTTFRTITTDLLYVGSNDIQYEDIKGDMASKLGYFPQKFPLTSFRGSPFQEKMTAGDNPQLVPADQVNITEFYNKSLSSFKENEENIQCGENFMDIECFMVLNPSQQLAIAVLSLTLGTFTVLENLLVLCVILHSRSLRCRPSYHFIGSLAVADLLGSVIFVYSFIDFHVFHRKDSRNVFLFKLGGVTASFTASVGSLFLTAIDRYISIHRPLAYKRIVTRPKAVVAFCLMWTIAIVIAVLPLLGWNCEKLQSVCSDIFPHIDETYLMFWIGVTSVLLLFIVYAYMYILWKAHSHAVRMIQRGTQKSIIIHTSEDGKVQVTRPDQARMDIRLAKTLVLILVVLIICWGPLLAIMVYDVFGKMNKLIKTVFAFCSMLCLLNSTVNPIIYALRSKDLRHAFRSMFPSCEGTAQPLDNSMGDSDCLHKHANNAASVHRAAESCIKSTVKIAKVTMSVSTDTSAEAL

CNC(=O)[C@H](CC(C)(C)C)NC(=O)c1nc(-c2ccc(Cl)c(F)c2)n2c1CN(C)CCC2 [Compound 550, (S)-3-(4-chloro-3-fluorophenyl)-N-(4,4-dimethyl-1-(methylamino)-1-oxopentan-2-yl)-8-methyl-6,7,8,9-tetrahydro-5H-imidazo[1,5-a][1,4]diazepine-1-carboxamide]
EC50 [1]: > 10 µM
+/− RCB2 [2]: −

CNC(=O)[C@H](CC(C)(C)C)NC(=O)c1nc(-c2ccc(C(F)(F)F)cc2F)n2c1CN(C)CCC2 [Compound 551, (S)-N-(4,4-dimethyl-1-(methylamino)-1-oxopentan-2-yl)-3-(2-fluoro-4-(trifluoromethyl)phenyl)-8-methyl-6,7,8,9-tetrahydro-5H-imidazo[1,5-a][1,4]diazepine-1-carboxamide]
+/− HCB1 [1]: +
+/− RCB2 [2]: +

CNC(=O)[C@H](CC(C)(C)C)NC(=O)c1nc(-c2ccc(F)c(F)c2)n2c1CN(C)CCC2 [Compound 552, (S)-3-(3,4-diflurophenyl)-N-(4,4-dimethyl-1-(methylamino)-1-oxopentan-2-yl)-8-methyl-6,7,8,9-tetrahydro-5H-imidazo[1,5-a][1,4]diazepine-1-carboxamide]
+/− HCB1 [1]: +
+/− RCB2 [2]: +

CNC(=O)[C@H](CC(C)(C)C)NC(=O)c1nc(-c2cc(F)ccc2F)n2c1CN(C)CCC2 [Compound 553, (S)-3-(2,5-difluorophenyl)-N-(4,4-dimethyl-1-(methylamino)-1-oxopentan-2-yl)-8-methyl-6,7,8,9-tetrahydro-5H-imidazo[1,5-a][1,4]diazepine-1-carboxamide]
EC50 [1]: > 10 µM
EC50 [2]: > 10 µM

CNC(=O)[C@H](CC(C)(C)C)NC(=O)c1nc(-c2cc(Cl)c(F)cc2F)n2c1CN(C)CCC2 [Compound 554, (S)-3-(5-chloro-2,4-difluorophenyl)-N-(4,4-dimethyl-1-(methylamino)-1-oxopentan-2-yl)-8-methyl-6,7,8,9-tetrahydro-5H-imidazo[1,5-a][1,4]diazepine-1-carboxamide]
+/− HCB1 [1]: +
+/− RCB2 [2]: +

CNC(=O)[C@H](CC(C)(C)C)NC(=O)c1nc(-c2cc(F)c(F)cc2F)n2c1CN(C)CCC2 [Compound 555, (S)-N-(4,4-dimethyl-1-(methylamino)-1-oxopentan-2-yl)-8-methyl-3-(2,4,5-trifluorophenyl)-6,7,8,9-tetrahydro-5H-imidazo[1,5-a][1,4]diazepine-1-carboxamide]
+/− HCB1 [1]: +
+/− RCB2 [2]: +

CN1CCCn2c(-c3ccc(Cl)cc3F)nc(C(=O)N[C@H](C(=O)N(C)C)C(C)(C)C)c2C1 [Compound 556, (S)-3-(4-chloro-2-fluorophenyl)-N-(1-(dimethylamino)-3,3-dimethyl-1-oxobutan-2-yl)-8-methyl-6,7,8,9-tetrahydro-5H-imidazo[1,5-a][1,4]diazepine-1-carboxamide]
+/− HCB1 [1]: +
EC50 [2]: > 10 µM

CN1CCCn2c(-c3ccccc3)nc(C(=O)N[C@H](C(=O)N(C)C)C(C)(C)C)c2C1 [Compound 557, (S)-N-(1-(dimethylamino)-3,3-dimethyl-1-oxobutan-2-yl)-8-methyl-3-phenyl-6,7,8,9-tetrahydro-5H-imidazo[1,5-a][1,4]diazepine-1-carboxamide]
EC50 [1]: > 10 µM
+/− RCB2 [2]: +

CN1CCCn2c(-c3ccc(F)c(Cl)c3)nc(C(=O)N[C@H](C(=O)N(C)C)C(C)(C)C)c2C1 [Compound 558, (S)-3-(3-chloro-4-fluorophenyl)-N-(1-(dimethylamino)-3,3-dimethyl-1-oxobutan-2-yl)-8-methyl-6,7,8,9-tetrahydro-5H-imidazo[1,5-a][1,4]diazepine-1-carboxamide]
+/− HCB1 [1]: +
+/− RCB2 [2]: +

CN1CCCn2c(-c3cc(Cl)ccc3F)nc(C(=O)N[C@H](C(=O)N(C)C)C(C)(C)C)c2C1 [Compound 559, (S)-3-(5-chloro-2-fluorophenyl)-N-(1-(dimethylamino)-3,3-dimethyl-1-oxobutan-2-yl)-8-methyl-6,7,8,9-tetrahydro-5H-imidazo[1,5-a][1,4]diazepine-1-carboxamide]
+/− HCB1 [1]: +
EC50 [2]: > 10 µM

CN1CCCn2c(-c3ccc(Cl)c(F)c3)nc(C(=O)N[C@H](C(=O)N(C)C)C(C)(C)C)c2C1 [Compound 560, (S)-3-(4-chloro-3-fluorophenyl)-N-(1-(dimethylamino)-3,3-dimethyl-1-oxobutan-2-yl)-8-methyl-6,7,8,9-tetrahydro-5H-imidazo[1,5-a][1,4]diazepine-1-carboxamide]
+/− HCB1 [1]: +
+/− RCB2 [2]: +

CN1CCCn2c(-c3ccc(F)c(F)c3)nc(C(=O)N[C@H](C(=O)N(C)C)C(C)(C)C)c2C1 [Compound 561, (S)-3-(3,4-difluorophenyl)-N-(1-(dimethylamino)-3,3-dimethyl-1-oxobutan-2-yl)-8-methyl-6,7,8,9-tetrahydro-5H-imidazo[1,5-a][1,4]diazepine-1-carboxamide]
+/− HCB1 [1]: +
+/− RCB2 [2]: +

CN1CCCn2c(-c3cc(F)ccc3F)nc(C(=O)N[C@H](C(=O)N(C)C)C(C)(C)C)c2C1 [Compound 562, (S)-3-(2,5-difluorophenyl)-N-(1-(dimethylamino)-3,3-dimethyl-1-oxobutan-2-yl)-8-methyl-6,7,8,9-tetrahydro-5H-imidazo[1,5-a][1,4]diazepine-1-carboxamide]
EC50 [1]: > 10 µM
+/− RCB2 [2]: −

CN1CCCn2c(-c3ccc(F)cc3F)nc(C(=O)N[C@H](C(=O)N(C)C)C(C)(C)C)c2C1 [Compound 563, (S)-3-(2,4-difluorophenyl)-N-(1-(dimethylamino)-3,3-dimethyl-1-oxobutan-2-yl)-8-methyl-6,7,8,9-tetrahydro-5H-imidazo[1,5-a][1,4]diazepine-1-carboxamide]
+/− HCB1 [1]: +
+/− RCB2 [2]: +

CC(C)C[C@H](NC(=O)c1nc(-c2ccc(Cl)cc2F)n2c1CN(C)CCC2)C(N)=O [Compound 564, (S)-N-(1-amino-4-methyl-1-oxopentan-2-yl)-3-(4-chloro-2-fluorophenyl)-8-methyl-6,7,8,9-tetrahydro-5H-imidazo[1,5-a][1,4]diazepine-1-carboxamide]
+/− HCB1 [1]: +
+/− RCB2 [2]: +

CC(C)C[C@H](NC(=O)c1nc(-c2ccc(F)cc2)n2c1CN(C)CCC2)C(N)=O [Compound 565, (S)-N-(1-amino-4-methyl-1-oxopentan-2-yl)-3-(4-fluorophenyl)-8-methyl-6,7,8,9-tetrahydro-5H-imidazo[1,5-a][1,4]diazepine-1-carboxamide]
EC50 [1]: > 10 µM
+/− RCB2 [2]: +

CC(C)C[C@H](NC(=O)c1nc(-c2cccc(F)c2)n2c1CN(C)CCC2)C(N)=O [Compound 566, (S)-N-(1-amino-4-methyl-1-oxopentan-2-yl)-3-(3-fluorophenyl)-8-methyl-6,7,8,9-tetrahydro-5H-imidazo[1,5-a][1,4]diazepine-1-carboxamide]
EC50 [1]: > 10 µM
+/− RCB2 [2]: +

CC(C)C[C@H](NC(=O)c1nc(-c2cc(F)ccc2F)n2c1CN(C)CCC2)C(N)=O [Compound 567, (S)-N-(1-amino-4-methyl-1-oxopentan-2-yl)-3-(2,5-difluorophenyl)-8-methyl-6,7,8,9-tetrahydro-5H-imidazo[1,5-a][1,4]diazepine-1-carboxamide]
EC50 [1]: > 10 µM
+/− RCB2 [2]: +

CC(C)C[C@H](NC(=O)c1nc(-c2ccc(F)cc2F)n2c1CN(C)CCC2)C(N)=O [Compound 568, (S)-N-(1-amino-4-methyl-1-oxopentan-2-yl)-3-(2,4-difluorophenyl)-8-methyl-6,7,8,9-tetrahydro-5H-imidazo[1,5-a][1,4]diazepine-1-carboxamide]
+/− HCB1 [1]: +
+/− RCB2 [2]: +

CC(C)C[C@H](NC(=O)c1nc(-c2cc(Cl)ccc2F)n2c1CN(C)CCC2)C(N)=O [Compound 569, (S)-N-(1-amino-4-methyl-1-oxopentan-2-yl)-3-(5-chloro-2-fluorophenyl)-8-methyl-6,7,8,9-tetrahydro-5H-imidazo[1,5-a][1,4]diazepine-1-carboxamide]
+/− HCB1 [1]: +
+/− RCB2 [2]: +

CC(C)C[C@H](NC(=O)c1nc(C2CCCCC2)n2c1CN(C)CCC2)C(N)=O [Compound 570, (S)-N-(1-amino-4-methyl-1-oxopentan-2-yl)-3-cyclohexyl-8-methyl-6,7,8,9-tetrahydro-5H-imidazo[1,5-a][1,4]diazepine-1-carboxamide]
+/− HCB1 [1]: +
+/− RCB2 [2]: +

CC(C)C[C@H](NC(=O)c1nc(-c2cc(Cl)c(F)cc2F)n2c1CN(C)CCC2)C(N)=O [Compound 571, (S)-N-(1-amino-4-methyl-1-oxopentan-2-yl)-3-(5-chloro-2,4-difluorophenyl)-8-methyl-6,7,8,9-tetrahydro-5H-imidazo[1,5-a][1,4]diazepine-1-carboxamide]
+/− HCB1 [1]: +
+/− RCB2 [2]: +

CC(C)C[C@H](NC(=O)c1nc(-c2cc(F)c(F)cc2F)n2c1CN(C)CCC2)C(N)=O [Compound 572, (S)-N-(1-amino-4-methyl-1-oxopentan-2-yl)-8-methyl-3-(2,4,5-trifluorophenyl)-6,7,8,9-tetrahydro-5H-imidazo[1,5-a][1,4]diazepine-1-carboxamide]
+/− HCB1 [1]: +
+/− RCB2 [2]: +

CN1CCCn2c(-c3ccc(Cl)cc3F)nc(C(=O)N[C@H](C(N)=O)C(C)(C)C)c2C1 [Compound 573, (S)-N-(1-amino-3,3-dimethyl-1-oxobutan-2-yl)-3-(4-chloro-2-fluorophenyl)-8-methyl-6,7,8,9-tetrahydro-5H-imidazo[1,5-a][1,4]diazepine-1-carboxamide]
+/− HCB1 [1]: +
+/− RCB2 [2]: +
